The test deals with T1, MAGL protein (Homo sapiens, UniProt Q99685).
T1 sequence (Q99685 1-303): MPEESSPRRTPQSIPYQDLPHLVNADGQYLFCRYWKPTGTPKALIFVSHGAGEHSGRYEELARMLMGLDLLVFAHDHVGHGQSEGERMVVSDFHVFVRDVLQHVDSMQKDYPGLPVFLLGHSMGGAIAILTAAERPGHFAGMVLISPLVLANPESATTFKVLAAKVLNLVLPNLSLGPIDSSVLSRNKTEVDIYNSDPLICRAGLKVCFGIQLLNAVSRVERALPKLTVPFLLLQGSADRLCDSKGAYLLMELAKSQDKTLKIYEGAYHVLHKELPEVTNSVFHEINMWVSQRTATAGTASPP
In words: 2-AG assay: MAGL inhibitory activity by hydrolysis of 2-arachidonoylglycerol to arachidonic acid, followed by mass spectrometry. The format is biochemical. The settings on record: 8 μM 2-arachidonoylglycerol, 15 min preincubation, 30 min reaction at RT, RapidFire MS readout. In outline: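 MAGL was preincubated 15 min at RT with compound (12.5 to […], 3-fold steps) in 50 mM TRIS, 1 mM EDTA, 0.01% Tween-20, 2.5% DMSO. The reaction ran 30 min at RT with 8 μM 2-AG. Arachidonic acid was quantified by RapidFire SPE-MS/MS against a d8-arachidonic acid internal standard.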

As for `O=C(N1CC2(CC(Nc3ccc(C(F)(F)F)nn3)C2)C1)N1CC2(CC(c3nnc(C4CC4)[nH]3)C2)C1` [compound 57], the IC50 (as a rule, the concentration at which inhibition is half-maximal) came out at 25.7 nM.
Next, `O=C(N1CC2(CC(Cc3nc(C(F)(F)F)ns3)C2)C1)N1CC2(CC(c3nnc(C4CC4)[nH]3)C2)C1` [compound 59]: 0.53 nM.
`O=C(N1CC2(CC(Cc3nc(C(F)(F)F)ns3)C2)C1)N1CC2(CC(c3nnc(C4(O)CC4)[nH]3)C2)C1` [compound 60] returned an IC50 of 4.03 nM.
`O=C(N1CC2(CC(Cc3nc(C(F)(F)F)co3)C2)C1)N1CC2(CC(c3nnc(C4CC4)[nH]3)C2)C1` [compound 61] gave a half-maximal inhibitory concentration (IC50) of 0.66 nM.
Next, `O=C(N1CC2(CC(Cc3nc(C(F)(F)F)co3)C2)C1)N1CC2(CC(c3nnc(C4(O)CC4)[nH]3)C2)C1` [compound 62]: 8.06 nM.
To `O=C(N1CC2(CC(Cn3cnc(C(F)(F)F)c3)C2)C1)N1CC2(CC(c3nnc(C4CC4)[nH]3)C2)C1` [compound 63] belongs 3.59 nM; to `O=C(N1CC2(CC(Cn3cnc(C(F)(F)F)c3)C2)C1)N1CC2(CC(c3nnc(C4(O)CC4)[nH]3)C2)C1` [compound 64], 37.9 nM.
To `O=C(N1CC2(CCC(OCC3(C(F)(F)F)CC3)CC2)C1)N1CC2(CC(c3nnc(C4CC4)[nH]3)C2)C1` [compound 65] belongs 1.46 nM.
Compound `O=C(N1CC2(CCC(OCC3(C(F)(F)F)CC3)CC2)C1)N1CC2(CC(c3nnc(C4(O)CC4)[nH]3)C2)C1` [compound 66] registered a 50% inhibitory concentration (IC50) of 1.91 nM.
Next, `O=C(N1CC2(CC(c3cnc(C(F)(F)F)cn3)C2)C1)N1CC2(CC(c3nnc(C4CC4)[nH]3)C2)C1` [compound 67]: 5.86 nM; `O=C(N1CC2(CC(OCC3(C(F)(F)F)CC3)C2)C1)N1CC2(CC(c3nnc(C4CC4)[nH]3)C2)C1` [compound 68]: 5.36 nM.
`O=C(N1CC2(CC(OCC3(C(F)(F)F)CC3)C2)C1)N1CC2(CC(c3nnc(C4(O)CC4)[nH]3)C2)C1` [compound 69]: 21.3 nM corresponded to half-maximal inhibition (IC50).
`O=C(N1CC2(CC(NC3(C(F)(F)F)CC3)C2)C1)N1CC2(CC(c3nnc(C4CC4)[nH]3)C2)C1` [compound 70]: inhibition was half-maximal at 7.25 nM (IC50).
Next, `O=C(N1CC2(CC(Cn3cnc(C(F)(F)F)n3)C2)C1)N1CC2(CC(c3nnc(C4CC4)[nH]3)C2)C1` [compound 71]: 1.74 nM; `O=C(NC1(C(F)(F)F)CC1)C1CC2(C1)CN(C(=O)N1CC3(CC(c4nnc(C5CC5)[nH]4)C3)C1)C2` [compound 72]: 157 nM.
Consider `O=C(N1CC2(CCC(Oc3ccnc(C(F)(F)F)n3)CC2)C1)N1CC2(CC(c3nnc(C4CC4)[nH]3)C2)C1` [compound 73], for which the IC50 came to 3.24 nM. This IC50 lies about 48-fold lower than the previous one.
To `O=C(N1CC2(CCC(Oc3cnc(C(F)(F)F)cn3)CC2)C1)N1CC2(CC(c3nnc(C4CC4)[nH]3)C2)C1` [compound 74] belongs 0.77 nM.
To `O=C(N1CC2(CC(Oc3cnc(C(F)(F)F)cn3)C2)C1)N1CC2(CC(c3nnc(C4CC4)[nH]3)C2)C1` [compound 75] belongs 5.55 nM; to `O=C(N1CC2(CC(Oc3cnc(C(F)(F)F)cn3)C2)C1)N1CC2(CC(c3nnc(C4(O)CC4)[nH]3)C2)C1` [compound 76], 38 nM; to `CS(=O)(=O)c1ccc(CC2CCC3(C2)CN(C(=O)N2CC4(CC(c5nnc(C6CC6)[nH]5)C4)C2)C3)cc1` (stereo not shown) [compound 77], 0.69 nM.
Compound `O=C(N1CC2(CC(Oc3ccc(C(F)(F)F)nn3)C2)C1)N1CC2(CC(c3nnc(C4CC4)[nH]3)C2)C1` [compound 78] displayed a concentration for half-maximal inhibition (IC50) of 3.92 nM.
Next, `O=C(N1CC2(CC(Oc3ccc(C(F)(F)F)nn3)C2)C1)N1CC2(CC(c3nnc(C4(O)CC4)[nH]3)C2)C1` [compound 79]: 43.4 nM.
To `O=C(N1CC(c2ccc(N3CCS(=O)(=O)CC3)nc2)C1)N1CC2(CC(c3nnc(C4CC4)[nH]3)C2)C1` [compound 80] belongs 58.3 nM; to `O=C(N1CC(c2ccc(NC3CCS(=O)(=O)C3)nc2)C1)N1CC2(CC(c3nnc(C4CC4)[nH]3)C2)C1` (stereo not shown) [compound 81], 28.2 nM; to `CC1(O)CN(c2ccc(C3CN(C(=O)N4CC5(CC(c6nnc(C7CC7)[nH]6)C5)C4)C3)cn2)C1` [compound 82], 20.5 nM.
To `O=C(N1CC2(CC(c3nnc(C4CC4)[nH]3)C2)C1)N1CC2(CC(N3CC(C(F)(F)F)C3)C2)C1` [compound 83] belongs 25.7 nM; to `O=C(N1CC2(CC(c3nnc(C4CC4)[nH]3)C2)C1)N1CC2(CC(N3CC(CC(F)(F)F)C3)C2)C1` [compound 84], 32.7 nM; to `O=C(N1CC2(CCN(Cc3ccc(S(=O)(=O)C(F)(F)F)cc3)CC2)C1)N1CC2(CC(c3nnc(C4CC4)[nH]3)C2)C1` [compound 85], 1.02 nM.
Turning to `O=C(N1CC2(CC(c3nnc(C4CC4)[nH]3)C2)C1)N1CC2(CN(Cc3ccc(S(=O)(=O)C(F)(F)F)cc3)C2)C1` [compound 86], the midpoint of inhibition, the IC50, lay at 0.92 nM.
To `O=C(N1CC2(CC(c3nnc(C4CC4)[nH]3)C2)C1)N1CC2(C1)CN(S(=O)(=O)c1cccc(OC(F)(F)F)c1)C2` [compound 87] belongs 8.21 nM.
Next, `O=C(N1CC2(CC(c3nnc(C4CC4)[nH]3)C2)C1)N1CC2(CC[C@H](Oc3cnc(C(F)(F)F)cn3)C2)C1` [compound 90]: 7.88 nM.
To `O=C(N1CC2(CC(c3nnc(C4CC4)[nH]3)C2)C1)N1CC2(C1)CN(S(=O)(=O)c1ccc(OC(F)(F)F)cc1)C2` [compound 91] belongs 4.05 nM; to `O=C(N1CC2(CC(c3nnc(C4(O)CC4)[nH]3)C2)C1)N1CC2(C1)CN(S(=O)(=O)c1ccc(OC(F)(F)F)cc1)C2` [compound 92], 44 nM; to `O=C(N1CC2(CC(c3nnc(C4CCC4)[nH]3)C2)C1)N1CC2(C1)CN(S(=O)(=O)c1ccc(OC(F)(F)F)cc1)C2` [compound 93], 143 nM.
On to `O=C(N1CC2(CC(c3nnc(C4CC4)[nH]3)C2)C1)N1CC2(C1)CN(S(=O)(=O)c1ccccc1OC(F)(F)F)C2` [compound 94], for which half-maximal inhibition (IC50) required 3.88 nM.
Compound `O=C(N1CC2(CC(c3nnc(C4(O)CC4)[nH]3)C2)C1)N1CC2(C1)CN(S(=O)(=O)c1ccccc1OC(F)(F)F)C2` [compound 95] returned a 50% inhibitory concentration (IC50) of 47.5 nM.
To `O=C(N1CC2(CC(c3nnc(C4CC4)[nH]3)C2)C1)N1CC2(C1)CN(S(=O)(=O)c1ccccc1C(F)(F)F)C2` [compound 96] belongs 2.94 nM.
Next, `O=C(N1CC2(CC(c3nnc(C4(O)CC4)[nH]3)C2)C1)N1CC2(C1)CN(S(=O)(=O)c1ccccc1C(F)(F)F)C2` [compound 97]: 27.9 nM; `O=C(N1CC2(CC(c3nnc(C4CC4)[nH]3)C2)C1)N1CC2(C1)CN(S(=O)(=O)c1ccc(F)cc1C(F)(F)F)C2` [compound 98]: 1.92 nM.
As for `O=C(N1CC2(CC(c3nnc(C4(O)CC4)[nH]3)C2)C1)N1CC2(C1)CN(S(=O)(=O)c1cccc(C(F)(F)F)c1)C2` [compound 100], the midpoint of inhibition, the IC50, lay at 66.1 nM.
Next, `O=C(N1CC2(CC(c3nnc(C4CC4)[nH]3)C2)C1)N1CC2(C1)CN(S(=O)(=O)c1cc(F)cc(C(F)(F)F)c1)C2` [compound 101]: 3.7 nM.
For `O=C(N1CC2(CC(c3nnc(C4CC4)[nH]3)C2)C1)N1CC2(C1)CN(S(=O)(=O)c1ccc(F)c(C(F)(F)F)c1)C2` [compound 102], half-maximal inhibition (IC50) required 15 nM.
In turn, `O=C(N1CC2(CC(c3nnc(C4CC4)[nH]3)C2)C1)N1CC2(C1)CN(S(=O)(=O)c1ccc(C(F)(F)F)cc1)C2` [compound 103] had a 50% inhibitory concentration (IC50) of 25 nM. This IC50 lies about 1.7-fold higher than the previous one.

For the origin of these results see patent US20250099448A1, “HETEROCYCLIC COMPOUNDS” (Hoffmann-La Roche Inc., priority 2022, published 2025).
